Data published in US20230322722A1, “MODULATORS OF MYC FAMILY PROTO-ONCOGENE PROTEIN” (Nalo Therapeutics, priority 2020, published 2023).

Legend:
MycN protein (n-myc) = molecular target: T1, MycN protein (n-myc) (Homo sapiens, UniProt P04198); assay: Degradation of MycN protein, 24 h treatment, JESS Western, SK-N-BE(2) cells (Example 161); format: cell-based; settings: SKNBE2 cells
T1 construct: either 2×10^6 of L-363 (human leukemia cell line) or SKNBE2 (neuroblastoma cell line) cells; endogenous in cells; host or cells: SKNBE2 / SK-N-BE(2) neuroblastoma cells
T1 sequence (P04198 1-464): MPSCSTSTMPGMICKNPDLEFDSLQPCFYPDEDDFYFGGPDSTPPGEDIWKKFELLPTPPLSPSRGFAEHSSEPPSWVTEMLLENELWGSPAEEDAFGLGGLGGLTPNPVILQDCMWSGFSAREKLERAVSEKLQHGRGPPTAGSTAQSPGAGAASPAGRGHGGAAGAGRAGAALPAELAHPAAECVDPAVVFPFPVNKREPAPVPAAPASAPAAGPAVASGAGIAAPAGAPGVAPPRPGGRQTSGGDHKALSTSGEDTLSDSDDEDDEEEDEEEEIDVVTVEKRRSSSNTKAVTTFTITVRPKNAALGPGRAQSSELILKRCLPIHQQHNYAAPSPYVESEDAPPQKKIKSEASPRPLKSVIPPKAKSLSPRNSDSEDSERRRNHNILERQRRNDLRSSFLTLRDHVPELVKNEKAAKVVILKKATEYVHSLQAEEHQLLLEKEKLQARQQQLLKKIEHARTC
Description: (§1) For L363 cells (suspension), 1E6 cells were plated into each well of a 6 well plate. For SK-N-BE(2) cells (adherent), 5E5 cells were plated into each well of a 6 well dish. […] All compounds were diluted to 10 mM in DMSO. Cells were treated with the compound for 24 hrs, then for both cell types, media containing cells were removed from wells into a 15 ml centrifuge tube, and remaining adherent SK-N-BE(2) cells were also scraped from the wells into the appropriate tubes. Tubes were centrifuged, cells were washed with PBS then re-centrifuged to pellet cells. A RIPA buffer cocktail was added to the cells on ice for 5 mins. Cell lysates were clarified by centrifugation and stored at −80 degrees until required. BCA assay was performed on each lysate to determine the protein concentration.
(§2) For validation studies of antibodies, lysates and antibodies were used at a number of concentrations (Lysates: 2, 1, 0.2 mg/ml; Antibodies: 1 in 50, 1 in 200 dilution). Once an appropriate lysate concentration and antibody concentration was determined, samples were screened in the JESS technology (Protein Simple, San Jose, CA—https://www.proteinsimple.com/jess.html).
(§3) Target protein antibodies (n-myc and c-myc) were detected in the chemi-luminescence channel and loading controls (tubulin and GAPDH) were detected using a Near Infra Red (NIR) labeled secondary antibody.
(§4) For SK-N-EB2 adherent cells, 5E5 cells in 1.9 mls media were plated into 6 well dishes and incubated for 24 hrs. […] Cells were scrapped off the plate, centrifuged, washed with PBS, centrifuged, then a RIPA buffer cocktail added to the cells (100 ul), centrifuged and stored at −80 for later analysis. For L363 suspension cells, 1E6 cells were plated into […] (950 ul media) and incubated for 24 hrs. […] Cells were aspirated into tubes, centrifuged, washed with PBS, centrifuged, then a RIPA buffer cocktail added to the cells (100 ul), centrifuged and stored at −80 for later analysis.
(§5) For Western blot, a BCA (total protein) assay was run on all samples, these were then run in batches of 5 compounds plus control (DMSO) on each Western blot run—n-myc and c-myc were run in separate experiments in the chemiluminescence channel. Both tubulin and GAPDH were run as loading controls in all lanes in the near infra red channel.

MycC protein (c-myc) = molecular target: T2, MycC protein (c-myc) (Homo sapiens, UniProt P01106); assay: Degradation of MycC protein, 24 h treatment, JESS Western, L363 cells (Example 161); format: cell-based; settings: L-363 cells
T2 construct: either 2×10^6 of L-363 (human leukemia cell line) cells; endogenous in cells; host or cells: L-363 / L363 human leukemia cells
T2 sequence (P01106 whole entry): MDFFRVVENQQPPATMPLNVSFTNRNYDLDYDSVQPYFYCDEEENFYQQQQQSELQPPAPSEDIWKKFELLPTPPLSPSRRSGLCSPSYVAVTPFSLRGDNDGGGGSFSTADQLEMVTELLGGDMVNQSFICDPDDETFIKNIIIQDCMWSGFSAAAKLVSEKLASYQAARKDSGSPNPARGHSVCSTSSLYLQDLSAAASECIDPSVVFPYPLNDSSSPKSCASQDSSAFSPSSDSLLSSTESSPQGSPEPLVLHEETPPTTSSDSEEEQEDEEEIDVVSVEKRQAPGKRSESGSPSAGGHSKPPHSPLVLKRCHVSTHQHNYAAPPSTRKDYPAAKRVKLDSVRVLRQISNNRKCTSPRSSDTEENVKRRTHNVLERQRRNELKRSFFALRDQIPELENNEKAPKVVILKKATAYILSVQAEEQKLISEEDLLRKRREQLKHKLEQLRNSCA
Description: as §1, §2, §3, §4, §5

inhibition at 0.5 µM (MycN protein (n-myc))	inhibition at 1 µM (MycN protein (n-myc))	inhibition at 3 µM (MycN protein (n-myc))	inhibition at 6 µM (MycN protein (n-myc))	inhibition at 0.5 µM (MycC protein (c-myc))	inhibition at 1 µM (MycC protein (c-myc))	inhibition at 3 µM (MycC protein (c-myc))	inhibition at 6 µM (MycC protein (c-myc))	SMILES
		20 to 49%	50 to 79%				80 to 100%	CN(c1nccc(Nc2cc(C3CC3)[nH]n2)n1)C1CC2(C1)CN(CC1CCOCC1)C2 [Compound 20, N4-(5-Cyclopropyl-1H-pyrazol-3-yl)-N2-methyl-N2-{2-[(oxan-4-yl)methyl]-2-azaspiro[3.3]heptan-6-yl}pyrimidine-2,4-diamine]
< 20%	20 to 49%	20 to 49%	50 to 79%		< 20%	50 to 79%	80 to 100%	CN(c1nccc(Nc2cc(C3CC3)[nH]n2)n1)C1CC2(C1)CN(CC1CC1)C2 [Compound 21, N4-(5-Cyclopropyl-1H-pyrazol-3-yl)-N2-(2-(cyclopropylmethyl)-2-azaspiro[3.3]heptan-6-yl)-N2-methylpyrimidine-2,4-diamine]
			80 to 100%	< 20%	50 to 79%	80 to 100%	80 to 100%	CN(c1nccc(Nc2cc(C3CC3)[nH]n2)n1)C1CC2(C1)CN(CC(=O)Nc1cccc(S(C)(=O)=O)c1)C2 [Compound 23, 2-(6-((4-((5-Cyclopropyl-1H-pyrazol-3-yl)amino)pyrimidin-2-yl)(methyl)amino)-2-azaspiro[3.3]heptan-2-yl)-N-(3-(methylsulfonyl)phenyl)acetamide]
		< 20%	< 20%	20 to 49%	20 to 49%			CN(c1nccc(Nc2cc(C3CC3)[nH]n2)n1)C1CC2(C1)CN(Cc1ccccc1F)C2 [Compound 25, N4-(5-Cyclopropyl-1H-pyrazol-3-yl)-N2-(2-(2-fluorobenzyl)-2-azaspiro[3.3]heptan-6-yl)-N2-methylpyrimidine-2,4-diamine]
	< 20%		20 to 49%		< 20%	< 20%	80 to 100%	CN(c1nccc(Nc2cc(C3CC3)[nH]n2)n1)C1CC2(C1)CN(Cc1cc(F)cc(F)c1)C2 [Compound 26, N4-(5-Cyclopropyl-1H-pyrazol-3-yl)-N2-(2-(3,5-difluorobenzyl)-2-azaspiro[3.3]heptan-6-yl)-N2-methylpyrimidine-2,4-diamine]
20 to 49%	20 to 49%		< 20%	< 20%	20 to 49%	50 to 79%	80 to 100%	CN(c1nccc(Nc2cc(C3CC3)[nH]n2)n1)C1CC2(C1)CN(Cc1cccc(OC(F)(F)F)c1)C2 [Compound 27, N4-(5-Cyclopropyl-1H-pyrazol-3-yl)-N2-methyl-N2-(2-(3-(trifluoromethoxy)benzyl)-2-azaspiro[3.3]heptan-6-yl)pyrimidine-2,4-diamine]
			20 to 49%			80 to 100%	80 to 100%	CN(c1nccc(Nc2cc(C3CC3)[nH]n2)n1)C1CC2(C1)CN(Cc1cccc(S(C)(=O)=O)c1)C2 [Compound 28, N4-(5-Cyclopropyl-1H-pyrazol-3-yl)-N2-methyl-N2-(2-(3-(methylsulfonyl)benzyl)-2-azaspiro[3.3]heptan-6-yl)pyrimidine-2,4-diamine]
20 to 49%	20 to 49%	50 to 79%	80 to 100%	50 to 79%	80 to 100%	80 to 100%	80 to 100%	CN(c1nccc(Nc2cc(C3CC3)[nH]n2)n1)C1CC2(C1)CN(CCCc1nc3ccccc3o1)C2 [Compound 29, N2-(2-(3-(Benzo[d]oxazol-2-yl)propyl)-2-azaspiro[3.3]heptan-6-yl)-N4-(5-cyclopropyl-1H-pyrazol-3-yl)-N2-methylpyrimidine-2,4-diamine]
20 to 49%	50 to 79%	80 to 100%	80 to 100%		80 to 100%	80 to 100%	80 to 100%	CN(c1nccc(Nc2cc(C3CC3)[nH]n2)n1)C1CC2(C1)CN(C(=O)c1cn(C)nn1)C2 [Compound 31, (6-((4-((5-Cyclopropyl-1H-pyrazol-3-yl)amino)pyrimidin-2-yl)(methyl)amino)-2-azaspiro[3.3]heptan-2-yl)(1-methyl-1H-1,2,3-triazol-4-yl)methanone]
		80 to 100%	80 to 100%			80 to 100%	80 to 100%	CN(c1nccc(Nc2cc(C3CC3)[nH]n2)n1)C1CC2(C1)CN(C(=O)C1CCOCC1)C2 [Compound 32, (6-((4-((5-Cyclopropyl-1H-pyrazol-3-yl)amino)pyrimidin-2-yl)(methyl)amino)-2 azaspiro[3.3]heptan-2-yl)(tetrahydro-2H-pyran-4-yl)methanone]
			80 to 100%			80 to 100%	80 to 100%	Cc1nnsc1C(=O)N1CC2(CC(N(C)c3nccc(Nc4cc(C5CC5)[nH]n4)n3)C2)C1 [Compound 33, (6-((4-((5-Cyclopropyl-1H-pyrazol-3-yl)amino)pyrimidin-2-yl)(methyl)amino)-2-azaspiro[3.3]heptan-2-yl)(4-methyl-1,2,3-thiadiazol-5-yl)methanone]
< 20%	< 20%	80 to 100%	80 to 100%			< 20%	80 to 100%	CN(c1nccc(Nc2cc(C3CC3)[nH]n2)n1)C1CC2(C1)CN(C(=O)c1cccc(C(F)(F)F)c1)C2 [Compound 34, (6-((4-((5-Cyclopropyl-1H-pyrazol-3-yl)amino)pyrimidin-2-yl)(methyl)amino)-2 azaspiro[3.3]heptan-2-yl)(3-(trifluoromethyl)phenyl)methanone]
< 20%	20 to 49%	50 to 79%	80 to 100%	20 to 49%	50 to 79%	80 to 100%	80 to 100%	CN(c1nccc(Nc2cc(C3CC3)[nH]n2)n1)C1CC2(C1)CN(S(=O)(=O)c1cnn(C)c1)C2 [Compound 35, N4-(5-Cyclopropyl-1H-pyrazol-3-yl)-N2-methyl-N2-{2-[(1-methyl-1H-pyrazol-4-yl)sulfonyl]-2-azaspiro[3.3]heptan-6-yl}pyrimidine-2,4-diamine]

SMILES	inhibition at 0.5 µM (MycN protein (n-myc))	inhibition at 1 µM (MycN protein (n-myc))	inhibition at 3 µM (MycN protein (n-myc))	inhibition at 6 µM (MycN protein (n-myc))	inhibition at 0.5 µM (MycC protein (c-myc))	inhibition at 1 µM (MycC protein (c-myc))	inhibition at 3 µM (MycC protein (c-myc))	inhibition at 6 µM (MycC protein (c-myc))
CN1CC2(CC(Nc3nccc(Nc4cc(C5CC5)[nH]n4)n3)C2)C1 [Compound 16, N4-(5-Cyclopropyl-1H-pyrazol-3-yl)-N2-(2-methyl-2-azaspiro[3.3]heptan-6-yl)pyrimidine-2,4-diamine]	20 to 49%	20 to 49%	80 to 100%	80 to 100%	50 to 79%	80 to 100%	80 to 100%	80 to 100%
CN(c1nccc(Nc2cc(C3CCCC3)[nH]n2)n1)C1CCN(C2CC2)CC1 [Compound 17, N4-(5-Cyclopentyl-1H-pyrazol-3-yl)-N2-(1-cyclopropylpiperidin-4-yl)-N2-methylpyrimidine-2,4-diamine]	< 20%	20 to 49%	80 to 100%	80 to 100%		80 to 100%	80 to 100%	80 to 100%
CN(c1nccc(Nc2cc(C3CCCC3)[nH]n2)n1)C1CCNCC1 [Compound 18, N4-(5-Cyclopentyl-1H-pyrazol-3-yl)-N2-methyl-N2-(piperidin-4-yl)pyrimidine-2,4-diamine]		20 to 49%	80 to 100%	80 to 100%		80 to 100%	80 to 100%	80 to 100%
